pIC50: −log10 of the molar value.
Assays:
[1] = test system: BH4 production in human peripheral blood mononuclear cells (PBMCs); experiment: hPBMC assay, inhibition of BH4 production by LC-MS (anti-CD3/anti-CD28 stimulated); format: cell-based; conditions: PBMC, read-out: hPBMC IC50
Description: hPBMC Assay: PBMCs were either purchased or isolated from fresh human blood and used either as a fresh preparation or frozen for later use. The assay system was prepared by pre-treating the assay plates overnight with a solution containing anti-human CD3 antibody. Human PBMCs were suspended in assay medium and plated into the assay plates at a density of 1-4×10^5 cells per well. The desired concentration of the test compound was added to each well. A solution of human anti-CD28 antibody was also added to each well. Plates were incubated for 12-48 hours at 37° C. and 5% CO2. Assay plates were centrifuged for 5-15 minutes at 1-3000 RMP and supernatants were removed. The cells were lysed, sealed and used directly or frozen at −80° C. LC-MS was used to quantify the amount of inhibition of BH4 production.
PBMCs were either purchased or isolated from fresh human blood and used either as a fresh preparation or frozen for later use. The assay system was prepared by pre-treating the assay plates overnight with a solution containing anti-human CD3 antibody. Human PBMCs were suspended in assay medium and plated into the assay plates at a density of 1-4×10^5 cells per well. The desired concentration of the test compound was added to each well. A solution of human anti-CD28 antibody was also added to each well. Plates are incubated for 12-48 hours at 37° C. and 5% CO2. Assay plates were centrifuged for 5-15 minutes at 1-3000 RMP and supernatants were removed. The cells were lysed, sealed and used directly or frozen at −80° C.

[2] = target: SNAP-hSPR (sepiapterin reductase, SPR) (Homo sapiens, UniProt P35270); experiment: biochemical; format: binding; conditions: terbium labelled SNAP-hSPR / SSZ labelled SNAP-EGFP; read-out: hTR-FRET IC50
Chain of SNAP-hSPR (sepiapterin reductase, SPR) (P35270 whole entry): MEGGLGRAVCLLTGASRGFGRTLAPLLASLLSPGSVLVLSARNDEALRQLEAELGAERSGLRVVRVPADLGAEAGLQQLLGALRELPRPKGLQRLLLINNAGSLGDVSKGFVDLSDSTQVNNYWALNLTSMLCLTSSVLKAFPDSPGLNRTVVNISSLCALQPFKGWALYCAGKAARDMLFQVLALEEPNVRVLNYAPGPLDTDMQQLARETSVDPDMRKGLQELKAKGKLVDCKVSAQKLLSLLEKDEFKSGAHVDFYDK

With `Cc1nn(-c2nn3cccc3c(=O)[nH]2)cc1C(=O)N1CC2(C1)CC(F)(F)C2` [Q-1239] the pIC50 [1] was 7.57 and the pIC50 [2] was 8.70.
For `Cc1c(C(=O)N2CCN(c3nc(-c4ccc(C(F)(F)F)cc4)cs3)CC2)cnn1-c1nn2cccc2c(=O)[nH]1` [Q-1139], the pIC50 [1] was 6.38 and the pIC50 [2] was 7.70.
`Cc1c(C(=O)N2CC(N3CCC(F)(F)C3)C2)nnn1-c1nn2cccc2c(=O)[nH]1` [Q-1185] was tested, and the pIC50 [1] was 6.96 and the pIC50 [2] was 9.00.
`Cc1c(C(=O)N2CCN(S(=O)(=O)CCC(F)(F)F)CC2)cnn1-c1nn2cccc2c(=O)[nH]1` [Q-1728] showed a pIC50 [1] of 7.07 and a pIC50 [2] of 9.00.
In the case of `Cc1c(C(=O)N2CCC(n3ccnc3Cl)CC2)cnn1-c1nn2cccc2c(=O)[nH]1` [Q-1232], the pIC50 [1] was 7.25 and the pIC50 [2] was 9.00.
In the case of `Cc1c(C(=O)N2C3CCC2CN(C2CC2)C3)cnn1-c1nn2cccc2c(=O)[nH]1` [Q-1094], the pIC50 [1] was 7.00 and the pIC50 [2] was 9.00.
Compound `O=C(c1cn(-c2nn3cccc3c(=O)[nH]2)nn1)N1CCN(C2CC2)CC1` [Q-1221] has a pIC50 [1] of 7.43 and a pIC50 [2] of 9.00.
Compound `CCC(=O)C1CCN(C(=O)c2cnn(-c3nc4c(c(=O)[nH]3)CCC4)c2C)CC1` [Q-1113] has a pIC50 [1] of 7.80 and a pIC50 [2] of 9.00.
`Cc1c(C(=O)N2CCC(c3nc(-c4ccncc4)cs3)CC2)cnn1-c1nc2c(c(=O)[nH]1)CCC2` [Q-1136] showed a pIC50 [1] of 7.85 and a pIC50 [2] of 8.70.
`Cc1c(C(=O)N2CCN(S(=O)(=O)C(C)C)CC2)cnn1-c1nn2cccc2c(=O)[nH]1` [Q-1558] was tested, and the pIC50 [1] was 7.04 and the pIC50 [2] was 8.70.
Work on `Cc1c(C(=O)N2CCN(c3nnc(-c4ccc(C(F)(F)F)cn4)o3)CC2)cnn1-c1nn2cccc2c(=O)[nH]1` [Q-1178] yielded a pIC50 [1] of 5.59 and a pIC50 [2] of 8.05.
Compound `Cc1c(C(=O)N2CCN(c3nnc(-c4cccc(F)c4)o3)CC2)cnn1-c1nn2cccc2c(=O)[nH]1` [Q-1193] has a pIC50 [1] of 6.80 and a pIC50 [2] of 8.15.
`Cc1c(C(=O)Nc2c(C(C)(O)C(F)(F)F)cnn2C(C)C)cnn1-c1nn2cccc2c(=O)[nH]1` (centres unmarked) [Q-1142] gave a pIC50 [1] of 7.12 and a pIC50 [2] of 9.00.
Work on `Cc1c(C(=O)N2CCN(S(=O)(=O)c3c(Cl)cccc3Cl)CC2)cnn1-c1nn2cccc2c(=O)[nH]1` [Q-1836] yielded a pIC50 [1] of 6.57 and a pIC50 [2] of 9.00.
`Cc1c(C(=O)N2CC3CC(C2)N3CC(F)(F)F)cnn1-c1nc2[nH]ccc2c(=O)[nH]1` [Q-1305] gave a pIC50 [1] of 5.92 and a pIC50 [2] of 7.00.
For `O=C(c1cn(-c2nn3cccc3c(=O)[nH]2)nn1)N1CC2(C1)CC(F)(F)C2` [Q-1237], the pIC50 [1] was 6.15 and the pIC50 [2] was 8.52.
`Cc1c(C(=O)N2CCN(C(C)C(F)(F)F)CC2)nnn1-c1nn2cccc2c(=O)[nH]1` (centres unmarked) [Q-1889] gave a pIC50 [1] of 7.44 and a pIC50 [2] of 9.00.
Compound `Cc1c(C(=O)N2CCC2c2cccc(F)n2)cnn1-c1nn2cccc2c(=O)[nH]1` (centres unmarked) [Q-1217] has a pIC50 [1] of 6.57 and a pIC50 [2] of 8.52.
`Cc1c(C(=O)N2CCN(c3ncc(-c4ccc(C(F)(F)F)cc4)o3)CC2)cnn1-c1nn2cccc2c(=O)[nH]1` [Q-1175] was tested, and the pIC50 [1] was 6.35 and the pIC50 [2] was 7.70.
Work on `Cc1c(C(=O)N2CCCC(O)(C(F)(F)F)CC2)cnn1-c1nn2cccc2c(=O)[nH]1` (centres unmarked) [Q-1118] yielded a pIC50 [1] of 6.96 and a pIC50 [2] of 9.00.
`CCCS(=O)(=O)N1CCN(C(=O)c2cnn(-c3nn4cccc4c(=O)[nH]3)c2C)CC1` [Q-1797] gave a pIC50 [1] of 7.10 and a pIC50 [2] of 9.00.
For `Cc1c(C(=O)N2CCN(CC(F)(F)F)CC2)cnn1-c1nc2c(c(=O)[nH]1)COC2` [Q-1344], the pIC50 [1] was 6.49 and the pIC50 [2] was 8.05.
`Cc1c(C(=O)N2CCc3nc(-c4cccc(C(F)(F)F)c4)sc3C2)cnn1-c1nn2cccc2c(=O)[nH]1` [Q-1167] gave a pIC50 [1] of 7.09 and a pIC50 [2] of 8.00.
`Cc1c(C(=O)N2CCC(C(=O)CCC(F)(F)F)CC2)cnn1-c1nn2cccc2c(=O)[nH]1` [Q-1227] gave a pIC50 [1] of 7.85 and a pIC50 [2] of 9.00.
Compound `Cc1c(C(=O)N2CCN(S(=O)(=O)c3ccccc3C(F)(F)F)CC2)cnn1-c1nn2cccc2c(=O)[nH]1` [Q-1796] has a pIC50 [1] of 6.59 and a pIC50 [2] of 9.00.
Compound `Cc1c(C(=O)N2CCN(S(=O)(=O)c3cccc(F)c3)CC2)cnn1-c1nn2cccc2c(=O)[nH]1` [Q-1823] has a pIC50 [1] of 6.96 and a pIC50 [2] of 9.00.
Compound `Cc1c(C(=O)N2CCC3(CC2)CC3C(=O)N2CCC2)cnn1-c1nn2cccc2c(=O)[nH]1` (centres unmarked) [Q-1088] has a pIC50 [1] of 6.54 and a pIC50 [2] of 8.40.
In the case of `Cc1c(C(=O)N2CCC(C(CO)C(F)(F)F)CC2)cnn1-c1nn2cccc2c(=O)[nH]1` (centres unmarked) [Q-1228], the pIC50 [1] was 7.77 and the pIC50 [2] was 9.00.
For `Cc1c(C(=O)N2CCC(c3cccnc3Cl)CC2)cnn1-c1nn2cccc2c(=O)[nH]1` [Q-1111], the pIC50 [1] was 7.82 and the pIC50 [2] was 9.00.
In the case of `Cc1c(C(=O)N2CCN(c3nc(C(F)(F)F)cs3)CC2)cnn1-c1nn2cccc2c(=O)[nH]1` [Q-1134], the pIC50 [1] was 7.60 and the pIC50 [2] was 8.52.
`Cc1c(C(=O)N2CCc3nc(-c4ccc(C(F)(F)F)cc4)sc3C2)cnn1-c1nn2cccc2c(=O)[nH]1` [Q-1148] gave a pIC50 [1] of 6.27 and a pIC50 [2] of 8.00.
Work on `Cc1nc(C)c(S(=O)(=O)N2CCN(C(=O)c3cnn(-c4nn5cccc5c(=O)[nH]4)c3C)CC2)s1` [Q-1805] yielded a pIC50 [1] of 6.89 and a pIC50 [2] of 9.00.
Compound `Cc1c(C(=O)N2CCN(S(=O)(=O)c3cccc(Cl)c3)CC2)cnn1-c1nn2cccc2c(=O)[nH]1` [Q-1822] has a pIC50 [1] of 6.92 and a pIC50 [2] of 9.00.
Work on `Cc1c(C(=O)N2CCN(c3ncc(-c4ccccc4F)s3)CC2)cnn1-c1nn2cccc2c(=O)[nH]1` [Q-1230] yielded a pIC50 [1] of 6.74 and a pIC50 [2] of 8.00.
Work on `Cc1c(C(=O)N2CCC(n3ccc(S(=O)(=O)C(F)(F)F)c3)CC2)cnn1-c1nn2cccc2c(=O)[nH]1` [Q-1289] yielded a pIC50 [1] of 7.15 and a pIC50 [2] of 8.70.
For `Cc1c(C(=O)N2CCN(c3ncc(-c4ccc(F)nc4)s3)CC2)cnn1-c1nn2cccc2c(=O)[nH]1` [Q-1197], the pIC50 [1] was 7.59 and the pIC50 [2] was 8.52.
`Cc1c(C(=O)N2CCC(c3nc(C#N)cs3)CC2)cnn1-c1nn2cccc2c(=O)[nH]1` [Q-1093] showed a pIC50 [1] of 7.02 and a pIC50 [2] of 9.00.
`Cc1c(C(=O)N2CCC(c3nccs3)CC2)cnn1-c1nc2c(c(=O)[nH]1)CCC2` [Q-1076] was tested, and the pIC50 [1] was 7.46 and the pIC50 [2] was 9.00.
With `Cc1c(C(=O)N2CCN(c3ncc(-c4ccccc4F)o3)CC2)cnn1-c1nn2cccc2c(=O)[nH]1` [Q-1149] the pIC50 [1] was 6.68 and the pIC50 [2] was 8.30.
With `Cc1c(C(=O)N2CCC(C(F)(F)F)CC2)c(C(N)=O)nn1-c1nc2c(c(=O)[nH]1)CCC2` [Q-1884, 5-methyl-1-(4-oxo-4,5,6,7-tetrahydro-3H-cyclopenta[d]pyrimidin-2-yl)-4-(4-(trifluoromethyl)piperidine-1-carbonyl)-1H-pyrazole-3-carboxamide] the pIC50 [1] was 7.08 and the pIC50 [2] was 9.00.
Work on `Cc1c(C(=O)N2C[C@H]3CCC[C@@H](C2)[C@H]3CC(F)(F)F)cnn1-c1nn2cccc2c(=O)[nH]1` [Q-1186] yielded a pIC50 [1] of 7.44 and a pIC50 [2] of 9.00.
`Cc1c(C(=O)N2CCN(c3nc(-c4ccc(Cl)cc4)cs3)CC2)cnn1-c1nn2cccc2c(=O)[nH]1` [Q-1138] showed a pIC50 [1] of 6.44 and a pIC50 [2] of 7.70.
`O=C(c1cn(-c2nn3cccc3c(=O)[nH]2)nn1)N1CC(N2CCC(F)(F)C2)C1` [Q-1224] showed a pIC50 [1] of 6.43 and a pIC50 [2] of 8.05.
In the case of `Cc1c(C(=O)N2CCc3nc(-c4ccc(Cl)cc4)sc3C2)cnn1-c1nn2cccc2c(=O)[nH]1` [Q-1146], the pIC50 [1] was 6.42 and the pIC50 [2] was 8.30.
For `CCC(=O)C1CCN(C(=O)c2cnn(-c3nn4cccc4c(=O)[nH]3)c2C)CC1` [Q-1112], the pIC50 [1] was 7.43 and the pIC50 [2] was 9.00.
`COCC(C1CCN(C(=O)c2cnn(-c3nn4cccc4c(=O)[nH]3)c2C)CC1)C(F)(F)F` (centres unmarked) [Q-1198] showed a pIC50 [1] of 7.77 and a pIC50 [2] of 9.00.
